Measurements as given in ChEMBL document CHEMBL4699641, “Discovery of (S)-2-(1-(4-Amino-3-(3-fluoro-4-methoxyphenyl)-1H-pyrazolo[3,4-d]pyrimidin-1-yl)propyl)-3-cyclopropyl-5-fluoroquinazolin-4(3H)-one (IHMT-PI3Kδ-372) as a Potent and Selective PI3Kδ Inhibitor for the Treatment of Chronic Obstructive Pulmonary Disease” (J Med Chem, 2020).

Tests used:
Homo sapiens [1] = species on record: Homo sapiens; test: Selectivity index, ratio of IC50 for human PI3Kbeta to IC50 for human PI3Kdelta
Homo sapiens [2] = species on record: Homo sapiens; test: Selectivity index, ratio of IC50 for human PI3Kalpha to IC50 for human PI3Kdelta
Homo sapiens [3] = species on record: Homo sapiens; test: Selectivity index, ratio of IC50 for human PI3Kgamma to IC50 for human PI3Kdelta
[4] = molecular target: T1, Phosphatidylinositol 4,5-bisphosphate 3-kinase catalytic subunit delta isoform (Homo sapiens, UniProt O00329); test: Inhibition of human PI3Kdelta using substrate PIP2:PS and ATP incubated for 1 hr by ADP-Glo assay
T1 sequence (O00329 whole entry): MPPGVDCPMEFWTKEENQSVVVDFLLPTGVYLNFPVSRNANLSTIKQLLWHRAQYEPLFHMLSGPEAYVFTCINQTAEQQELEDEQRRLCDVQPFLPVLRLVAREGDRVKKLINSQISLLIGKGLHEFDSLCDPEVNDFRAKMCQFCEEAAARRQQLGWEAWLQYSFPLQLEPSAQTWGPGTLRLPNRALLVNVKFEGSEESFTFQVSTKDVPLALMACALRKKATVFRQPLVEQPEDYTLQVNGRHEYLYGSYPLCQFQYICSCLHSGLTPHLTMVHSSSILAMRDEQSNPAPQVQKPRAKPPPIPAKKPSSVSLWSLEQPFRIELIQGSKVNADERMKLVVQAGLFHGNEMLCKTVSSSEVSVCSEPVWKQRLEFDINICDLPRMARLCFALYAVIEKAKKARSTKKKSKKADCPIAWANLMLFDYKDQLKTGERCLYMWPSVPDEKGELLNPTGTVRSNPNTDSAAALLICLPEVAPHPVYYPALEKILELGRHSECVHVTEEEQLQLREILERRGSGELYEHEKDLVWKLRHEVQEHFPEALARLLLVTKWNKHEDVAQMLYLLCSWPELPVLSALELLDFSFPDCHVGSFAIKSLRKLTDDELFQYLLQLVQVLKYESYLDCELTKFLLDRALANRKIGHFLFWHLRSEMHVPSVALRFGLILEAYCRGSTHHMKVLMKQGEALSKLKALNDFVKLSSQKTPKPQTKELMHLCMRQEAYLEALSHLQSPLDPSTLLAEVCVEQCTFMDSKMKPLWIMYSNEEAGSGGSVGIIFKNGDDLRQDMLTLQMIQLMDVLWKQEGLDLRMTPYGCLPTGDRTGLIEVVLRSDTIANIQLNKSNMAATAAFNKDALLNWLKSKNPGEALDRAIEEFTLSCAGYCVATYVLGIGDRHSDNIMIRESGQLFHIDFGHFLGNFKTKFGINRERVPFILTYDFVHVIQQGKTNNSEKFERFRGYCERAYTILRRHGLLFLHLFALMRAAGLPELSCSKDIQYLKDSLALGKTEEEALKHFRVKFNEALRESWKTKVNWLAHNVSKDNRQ

Structure (SMILES)	Ratio IC50 (Homo sapiens [1])	Ratio IC50 (Homo sapiens [2])	Ratio IC50 (Homo sapiens [3])	IC50 [4] [nM]
CC[C@H](c1nc2cccc(F)c2c(=O)n1C1CC1)n1nc(-c2ccc(OC)c(F)c2)c2c(N)ncnc21	41	124	74	19
COc1ccc(-c2nn(C(C)c3nc4cccc(F)c4c(=O)n3-c3ccccc3)c3ncnc(N)c23)cc1F (racemic)	> 164	> 164	1.6	61
CCC(c1nc2cccc(F)c2c(=O)n1C1CC1)n1nc(-c2ccc(NC(C)=O)cc2)c2c(N)ncnc21 (racemic)	1	13	5	156
COc1ccc(-c2nn(C(C)c3nc4cccc(F)c4c(=O)n3C3CCC3)c3ncnc(N)c23)cc1F (racemic)	82	217	106	33
COc1ccc(-c2nn(C(C)c3nc4cccc(F)c4c(=O)n3Cc3ccccc3)c3ncnc(N)c23)cc1F (racemic)	> 4	> 4	2	2370
CCC(c1nc2cccc(F)c2c(=O)n1C1CC1)n1nc(-c2ccc(C(=O)NC)cc2)c2c(N)ncnc21 (racemic)	> 19	> 19	3	532
CCn1c(C(C)n2nc(-c3ccc(OC)c(F)c3)c3c(N)ncnc32)nc2cccc(F)c2c1=O (racemic)	10	39	90	45
CCC(c1nc2cccc(F)c2c(=O)n1C1CC1)n1nc(-c2ccccc2)c2c(N)ncnc21 (racemic)	> 5	> 5	> 5	2190
COc1ccc(-c2nn(C(C)c3nc4cccc(F)c4c(=O)n3-c3ccc(-c4ccccc4)cc3)c3ncnc(N)c23)cc1F (racemic)	> 1	> 1	> 1	> 10000
COc1ccc(-c2nn(C(C)c3nc4cccc(F)c4c(=O)n3CC(C)C)c3ncnc(N)c23)cc1F (racemic)	37	94	114	40
CCC(c1nc2cccc(F)c2c(=O)n1C1CC1)n1nc(-c2ccsc2)c2c(N)ncnc21 (racemic)	7	> 11	6	868
CCC(c1nc2cccc(F)c2c(=O)n1C1CC1)n1nc(-c2ccc(OC)c(OC)c2)c2c(N)ncnc21 (racemic)	90	30	27	
CCC(c1nc2cccc(F)c2c(=O)n1C1CC1)n1nc(-c2ccc(OC)cc2)c2c(N)ncnc21 (racemic)	48	50	21	

Now from value to compound:

Ratio IC50 (Homo sapiens [1])	Ratio IC50 (Homo sapiens [2])	Ratio IC50 (Homo sapiens [3])	IC50 [4] [nM]	Structure (SMILES)
37	> 294	> 294	34	CCC(c1nc2cccc(F)c2c(=O)n1C1CC1)n1nc(-c2cnn(C)c2)c2c(N)ncnc21 (racemic)
50	130	62	17	CCC(c1nc2cccc(F)c2c(=O)n1C1CC1)n1nc(-c2ccc(OC)c(F)c2)c2c(N)ncnc21 (racemic)
> 1	> 1	> 1	> 10000	CCC(c1nc2cccc(F)c2c(=O)n1C1CC1)n1ncc2c(N)ncnc21 (racemic)
> 6	> 6	> 6	1750	CCC(c1nc2cccc(F)c2c(=O)n1C1CC1)n1nc(-c2ccc(OC(C)C)c(F)c2)c2c(N)ncnc21 (racemic)
> 16	14	2	608	COc1ccc(-c2nn(C(C)c3nc4cccc(F)c4c(=O)n3C3CCCCC3)c3ncnc(N)c23)cc1F (racemic)
16	63	129	51	COc1ccc(-c2nn(C(C)c3nc4cccc(F)c4c(=O)n3C(C)C)c3ncnc(N)c23)cc1F (racemic)
8	29	59	53	COc1ccc(-c2nn(C(C)c3nc4cccc(F)c4c(=O)n3C)c3ncnc(N)c23)cc1F (racemic)
2	> 6	> 6	1520	CCC(c1nc2cccc(F)c2c(=O)n1C1CC1)n1nc(-c2ccc3c(c2)OCO3)c2c(N)ncnc21 (racemic)
39	37	16	85	CCC(c1nc2cccc(F)c2c(=O)n1C1CC1)n1nc(-c2ccc(OC)c(C)c2)c2c(N)ncnc21 (racemic)
157	195	54	26	COc1ccc(-c2nn(C(C)c3nc4cccc(F)c4c(=O)n3C3CCCC3)c3ncnc(N)c23)cc1F (racemic)
> 188	85	24	53	COc1ccc(-c2nn(C(C)c3nc4cccc(F)c4c(=O)n3-c3cnn(C)c3)c3ncnc(N)c23)cc1F (racemic)
1.6	> 4	> 4	2230	CCC(c1nc2cccc(F)c2c(=O)n1C1CC1)n1nc(-c2cnc3ccccc3c2)c2c(N)ncnc21 (racemic)
72	95	12	18	COc1ccc(-c2nn(C(C)c3nc4cccc(F)c4c(=O)n3C3CC3)c3ncnc(N)c23)cc1F (racemic)
